# Test results reported in US20260345791A1, “EIF4A INHIBITORS AND USES THEREOF” (The Regents of the University of California, priority 2022, published 2026).
# Key:
# [1] = system: K562 CRISPRi or CRISPRa cells; IFITM1, IFITM2, IFITM3; experiment: Viability of K562 CRISPRi/CRISPRa cells with modulated IFITM expression (chemical-genetic interaction, IC50 shift); type: cell-based; conditions: for IFITM assistance versus linker length: linker series: BisRoc-1 (PEG11), BisRoc-2 (PEG4), BisRoc-3 (PEG2), rocaglamide (no linker), FIG. 2B
# Excerpt: FIGS. 1A-1E. Longer linker length correlates with greater IFITM assistance in a series of linked rocaglamide analogs. FIG. 1A: Crystal structure of rocaglamide bound to eIF4A1 and polypurine RNA showing adjacent symmetry mates (PDB, 5ZC9). The distance between RocA molecules bound to adjacent eIF4A1 proteins is approximately 14 Å and the solvent exposed amide on RocA offers a handle for chemical modification. FIG. 1B: Chemical structures of select eIF4A1 inhibitors. FIGS. 1C-1D: Viability of K562 CRISPRi (FIG. 1C) or CRISPRa (FIG. 1D) cells expressing sgRNAs treated with BisRoc-1 or rocaglamide. Data represent means of three biological replicates; error bars denote SD. FIG. 1E: Chemical structures of a BisRoc linker length series (see also FIG. 2B).
# FIGS. 2A-2C. IFITM proteins assist the cellular activity of diverse linked chemotypes. FIG. 2A: Heavy atom skeletons of compounds assessed for IFITM assistance (see also FIG. 3 for chemical structures). Compounds were categorized as non-linked chemotypes (compounds 3, 6, and 8; black), linked chemotypes with short linkers (compounds 10 and 13; light gray), or linked chemotypes with long linkers (compounds 15 and 17; medium gray). FIG. 2B: Chemical-genetic interaction map of inhibitors in FIG. 2A with IFITM1, IFTM2, and IFITM3. Potency, as measured by dose-response IC50 in a cell viability assay (see also FIG. 1D for example source data), was normalized to that of non-sgRNA-expressing K562 CRISPRi or CRISPRa cells. Physicochemical properties, including molecular weight (MW) and number of rotatable bonds, with their respective traditional thresholds for drug-likeness are indicated (right). Data represent means of three biological replicates. FIG. 2C: Map of chemical space populated by 301 kinase inhibitors in clinical development (black), 2258 PROTACs reported in the literature (light gray), and 2 linked chemotypes described herein (medium gray). Boundaries represent traditional guidelines for drug-likeness.
# Given the ubiquitous presence of IFITM proteins in cells, we hypothesized that the cellular uptake of other linked inhibitors in the literature could also be assisted by IFITM proteins. While not generally as large as the linked chemotypes described above, PROTACs are likewise composed of two chemical entities covalently attached by a flexible tether (15). […] Thus, we included several PROTACs and their non-linked parent inhibitors in an expanded survey of chemical-genetic interactions with IFITM proteins (FIG. 2A, FIGS. 3A-3B, and FIG. 4). We treated our K562 CRISPRi and CRISPRa cells with these inhibitors and evaluated differences in potency resulting from IFITM protein expression modulation, as measured by half-maximal inhibitory concentration (IC50) shift in a cell viability assay. […] The inverse finding, resistance to linked chemotypes, resulted from gene knockdown (FIG. 2B). Included among these compounds were a systematic linker series of BisRoc-1 analogs (FIG. 1E). […] The same trend was corroborated by the diverse ensemble of all molecules tested (FIG. 2B): the magnitudes of chemical-genetic interactions correlated with inhibitor size (molecular weight) and flexibility (number of rotatable bonds). […] Despite their cellular activities, the physicochemical properties of these linked chemotypes largely violate Lipinski's (1) and Veber's (2) classic guidelines (FIG. 2B and FIG. 4), raising the need for a revised drug design framework that considers IFITM-assisted uptake and other cellular import processes. […]
# [2] = system: interferon-induced transmembrane (IFITM) proteins; experiment: Genome-scale chemical-genetic identification of uptake pathway; type: cell-based; conditions: genome-scale chemical-genetic approaches
# Excerpt: We devised additional linked inhibitors targeting EIF4A1 (BisRoc-1, molecular weight: 1466 g/mol) whose uptake we predicted would be assisted by IFITM proteins. This uptake pathway should provide a general mechanism by which large, flexibly linked chimeric molecules can gain assisted access to the cytosol, including compounds with mechanisms of action not easily accessible to traditional drug-like molecules.
# MTOR = conditions: cited from earlier work
# [3] = in vivo; cited from earlier work
# KBM7 cells; IFITM2 = conditions: IFITM2 knockout, not validated; cited from earlier work
smiles,measurement,setting,value
COc1ccc([C@@]23Oc4cc(OC)cc(OC)c4[C@]2(O)[C@H](O)[C@H](C(=O)NCCOCCOCCOCCOCCOCCOCCOCCOCCOCCOCCOCCNC(=O)[C@H]2[C@@H](O)[C@@]4(O)c5c(OC)cc(OC)cc5O[C@@]4(c4ccc(OC)cc4)[C@@H]2c2ccccc2)[C@H]3c2ccccc2)cc1 [BisRoc-1],overall modulation in the cellular activity accounted for by IFITM proteins,"[1]; K562 CRISPRi/a cells, FIG. 1C-1D",6.2 fold
same,IFITM assistance versus linker length,[1],longer linker lengths correlated with greater IFITM assistance
COc1ccc([C@@]23Oc4cc(OC)cc(OC)c4[C@]2(O)[C@H](O)[C@H](C(=O)NCCOCCOCCOCCOCCNC(=O)[C@H]2[C@@H](O)[C@@]4(O)c5c(OC)cc(OC)cc5O[C@@]4(c4ccc(OC)cc4)[C@@H]2c2ccccc2)[C@H]3c2ccccc2)cc1 [BisRoc-2],IFITM assistance versus linker length,[1],longer linker lengths correlated with greater IFITM assistance
COc1ccc([C@@]23Oc4cc(OC)cc(OC)c4[C@]2(O)[C@H](O)[C@H](C(=O)NCCOCCOCCNC(=O)[C@H]2[C@@H](O)[C@@]4(O)c5c(OC)cc(OC)cc5O[C@@]4(c4ccc(OC)cc4)[C@@H]2c2ccccc2)[C@H]3c2ccccc2)cc1 [BisRoc-3],IFITM assistance versus linker length,[1],longer linker lengths correlated with greater IFITM assistance
CO[C@H]1C[C@@H]2CC[C@@H](C)[C@@](O)(O2)C(=O)C(=O)N2CCCC[C@H]2C(=O)O[C@H]([C@H](C)C[C@@H]2CC[C@@H](OCCOCc3cn(CCOCCOCCOCCOCCOCCOCCOCCOCCC(=O)NCCCCn4nc(-c5ccc6oc(N)nc6c5)c5c(N)ncnc54)nn3)[C@H](OC)C2)CC(=O)[C@H](C)/C=C(\C)[C@@H](O)[C@@H](OC)C(=O)[C@H](C)C[C@H](C)C=CC=CC=C1C [RapaLink-1],modulation of cell permeability by IFITM pathway,[2],modulates the cell permeability
same,activity in vivo,MTOR,highly active in vivo
same,blood-brain barrier penetration,[3],penetrates the blood-brain barrier
Cc1sc2c(c1C)C(c1ccc(Cl)cc1)=N[C@@H](CC(=O)NCCCCCCCCNC(=O)COc1cccc3c1C(=O)N(C1CCC(=O)NC1=O)C3=O)c1nnc(C)n1-2 (stereo partly drawn) [dBET6],IFITM2 chemical-genetic interaction,KBM7 cells; IFITM2,statistically significant resistance chemical-genetic interaction
COc1ccc([C@@]23Oc4cc(OC)cc(OC)c4[C@]2(O)[C@H](O)[C@H](C(=O)N(C)C)[C@H]3c2ccccc2)cc1 [rocaglamide],IFITM assistance versus linker length,[1],longer linker lengths correlated with greater IFITM assistance
